The source of these data is ChEMBL document CHEMBL3217701, “Squaric acid: a valuable scaffold for developing antimalarials?” (Medchemcomm, 2012).

One data set has as its target T1, Papain (Carica papaya, UniProt P00784).
T1 sequence (P00784 whole entry): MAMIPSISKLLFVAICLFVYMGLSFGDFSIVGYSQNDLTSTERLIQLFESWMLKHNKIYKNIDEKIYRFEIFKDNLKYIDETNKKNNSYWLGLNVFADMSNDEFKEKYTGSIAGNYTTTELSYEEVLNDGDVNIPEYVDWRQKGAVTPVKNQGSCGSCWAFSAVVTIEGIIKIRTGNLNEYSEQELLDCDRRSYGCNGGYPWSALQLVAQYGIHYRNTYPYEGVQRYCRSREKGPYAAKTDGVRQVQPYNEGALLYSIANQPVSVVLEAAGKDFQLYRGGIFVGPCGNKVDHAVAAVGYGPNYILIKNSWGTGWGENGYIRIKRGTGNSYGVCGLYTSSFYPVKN
Description: Inhibition of papaya papain using Z-Leu-Leu-Arg-AMC as substrate measured for 30 mins by fluorescence assay.

The test system of a further data set is Plasmodium falciparum. Description: Antiplasmodial activity against chloroquine-resistant ring stage of Plasmodium falciparum W2 infected in human RBC after 48 hrs by flow cytometric analysis. Conditions: W2, 48 h. It is filed as functional, organism-based. In general terms: Flow cytometry measures light scatter and fluorescence of single cells or particles in a stream.

Data set [1] can be described thus: Cytotoxicity against mouse NIH/3T3 cells assessed as inhibition of cell viability after 48 hrs by MTT assay. Conditions: NIH3T3, 48 h. In kind it is cell-based. In general terms: Formazan colour is commonly taken as a measure of viable cells.
Data set [2] in a line: Inhibition of Plasmodium falciparum falcipain-2 using Z-Leu-Arg-AMC as substrate after 10 mins by spectrofluorometric analysis.
Data set [3] is described as follows: Selectivity index, ratio of IC50 for HEK293T cells to IC50 for chloroquine-resistant ring stage of Plasmodium falciparum W2. In kind it is toxicity, cell-based, HEK-293T. The following applies: human; read-out: Ratio IC50.
Another data set has as its system HEK-293T. Description: Cytotoxicity against HEK293T cells assessed as inhibition of cell viability after 48 hrs by MTT assay. In kind it is cell-based. Conditions: Homo sapiens.

By IC50 is commonly meant the point on the concentration scale where inhibition reaches its midpoint. In the case of `COc1c(NNC(=O)[C@H](CC(C)C)NC(=O)N2CCOCC2)c(=O)c1=O`, the half-maximal inhibitory concentration (IC50) against Papain and with Plasmodium falciparum was above 10 µM in each case.
Regarding `O=c1c(Nc2cccnc2)c(Nc2cccnc2)c1=O`, the half-maximal inhibitory concentration (IC50) against Papain and with Plasmodium falciparum was above 10 µM throughout.
For `CN(C)CCCNc1c(NCCCN(C)C)c(=O)c1=O`, the IC50 against Papain and in the data set on Plasmodium falciparum was above 10 µM throughout.
Take `O=c1c(NC2CCCCC2)c(NC2CCCCC2)c1=O`: the IC50 at Papain and in the data set with Plasmodium falciparum was above 10 µM in each case.
Turning to `CC(C)(C)c1ccc(Nc2c(Nc3ccc(C(C)(C)C)cc3)c(=O)c2=O)cc1`, the concentration for half-maximal inhibition (IC50) in data set [1] is above 100 µM; against Papain it was 8.1 µM; in data set [2], 24.3 µM; with Plasmodium falciparum, 0.99 µM; in the data set with HEK-293T, above 100 µM. Further, in data set [3], the selectivity ratio was above 101.
On to `CC(C)NCCCNc1c(NCCCNC(C)C)c(=O)c1=O`, for which the IC50 on Papain is above 10 µM; in data set [2] it was above 50 µM; with Plasmodium falciparum, above 10 µM.
For the compound `COc1c(Nc2ccc(Cl)cc2)c(=O)c1=O`, the half-maximal inhibitory concentration (IC50) at Papain and with Plasmodium falciparum was above 10 µM in each case.
For `CCCCOc1c(Nc2ccc(C(C)(C)C)cc2)c(=O)c1=O`, the IC50 is 17.5 µM in data set [1]; above 10 µM against Papain; above 50 µM in data set [2]; 2.65 µM with Plasmodium falciparum; 12.3 µM in the data set with HEK-293T. In addition, the selectivity ratio in data set [3] is 4.7.
As to `COc1c(N(CCc2ccccc2)NC(=O)[C@H](CC(C)C)NC(=O)OC(C)(C)C)c(=O)c1=O`, the half-inhibitory concentration (IC50) was above 100 µM in data set [1], above 10 µM against Papain, 6.36 µM in the data set on Plasmodium falciparum and above 100 µM in the data set on HEK-293T. In data set [3], the selectivity ratio is above 16.
`COc1c(N(CCc2ccccc2)NC(=O)[C@H](Cc2ccccc2)NC(=O)OCc2ccccc2)c(=O)c1=O`: the IC50 in data set [1] was above 100 µM; against Papain it was above 10 µM; in the data set with Plasmodium falciparum, 3.14 µM; with HEK-293T, above 100 µM. The selectivity ratio in data set [3] is above 32.
On to `CC(Nc1c(NC(C)c2ccccc2)c(=O)c1=O)c1ccccc1` (configuration not stated), for which the 50% inhibitory concentration (IC50) against Papain and with Plasmodium falciparum was above 10 µM each time.
Take `CCCCOc1c(N(CCc2ccccc2)NC(=O)[C@H](CC(C)C)NC(=O)OC(C)(C)C)c(=O)c1=O`: the 50% inhibitory concentration (IC50) on Papain and with Plasmodium falciparum was above 10 µM in each case.
`CCCCOc1c(N(CCc2ccccc2)NC(=O)[C@H](Cc2ccccc2)NC(=O)OCc2ccccc2)c(=O)c1=O`: the concentration for half-maximal inhibition (IC50) in data set [1] is above 100 µM; on Papain, above 10 µM; in the data set on Plasmodium falciparum, 4.69 µM; in the data set with HEK-293T it was above 100 µM. Moreover, the selectivity ratio in data set [3] was above 21.
With `CCCCNc1c(NCCCC)c(=O)c1=O`, the IC50 against Papain and in the data set with Plasmodium falciparum was above 10 µM each time.
For `COc1c(NC(CO)Cc2ccccc2)c(=O)c1=O` (configuration not stated), the IC50 against Papain was above 10 µM; in data set [2], above 50 µM; with Plasmodium falciparum, above 10 µM.
As for `O=c1c(Nc2ccc(N3CCCCC3)cc2)c(Nc2ccc(N3CCCCC3)cc2)c1=O`, the 50% inhibitory concentration (IC50) in data set [1] was above 50 µM; at Papain, 2.8 µM; in data set [2], above 50 µM; in the data set with Plasmodium falciparum it was 4.16 µM; in the data set on HEK-293T, above 50 µM. In addition, the selectivity ratio in data set [3] was above 12.
Regarding `CCCCOc1c(NNC(=O)[C@H](CC(C)C)NC(=O)N2CCOCC2)c(=O)c1=O`, the half-inhibitory concentration (IC50) in data set [1] was above 100 µM; against Papain it was above 10 µM; in the data set with Plasmodium falciparum, 9.45 µM; in the data set on HEK-293T, above 100 µM. In addition, in data set [3], the selectivity ratio was above 11.
In turn, `CC(C)C[C@H](Nc1c(NC(CO)Cc2ccccc2)c(=O)c1=O)C(=O)NN(Cc1ccccc1)C(=O)/C=C/S(=O)(=O)c1ccccc1` (some centres not stated) returned a concentration for half-maximal inhibition (IC50) with Plasmodium falciparum above 10 µM.
In the data set on Plasmodium falciparum, `CC(C)C[C@H](Nc1c(Nc2ccc(C(C)(C)C)cc2)c(=O)c1=O)C(=O)NN(Cc1ccccc1)C(=O)/C=C/S(=O)(=O)c1ccccc1` gave an IC50 above 10 µM.
As for `CCN(CC)CCNc1c(NCCN(CC)CC)c(=O)c1=O`, the values for the IC50 (against Papain; in data set [2]; in the data set on Plasmodium falciparum) were above 10 µM, above 50 µM and above 10 µM, respectively.
For the compound `CCCCOc1c(N(CCc2ccccc2)NC(=O)[C@H](CC(C)C)NC(=O)OCc2ccccc2)c(=O)c1=O`, the half-maximal inhibitory concentration (IC50) in data set [1] was above 100 µM; at Papain, above 10 µM; in the data set with Plasmodium falciparum, 4.51 µM; with HEK-293T, above 100 µM. The selectivity ratio in data set [3] is above 22.
`CCCCOc1c(NNC(=O)[C@H](CC(C)C)NC(=O)OC(C)(C)C)c(=O)c1=O`: the concentration for half-maximal inhibition (IC50) against Papain and in the data set with Plasmodium falciparum was above 10 µM in each case.
With `COc1c(N(CCc2ccccc2)NC(=O)CNC(=O)OCc2ccccc2)c(=O)c1=O`, the IC50 was above 100 µM in data set [1], above 10 µM against Papain, 9.36 µM in the data set with Plasmodium falciparum and above 100 µM with HEK-293T. Moreover, the selectivity ratio in data set [3] is above 11.
Regarding `CC(C)C[C@H](NC(=O)[C@H]1O[C@@H]1C(=O)O)C(=O)NCCCCN=C(N)N` [E-64], the concentration for half-maximal inhibition (IC50) against Papain is 0.12 µM; in data set [2], 0.06 µM.
As for `O=c1c(NC(CO)Cc2ccccc2)c(NC(CO)Cc2ccccc2)c1=O` (configuration not stated), the concentration for half-maximal inhibition (IC50) against Papain and in the data set with Plasmodium falciparum was above 10 µM each time.
Take `COc1ccc(Nc2c(OC)c(=O)c2=O)cc1`: the concentration for half-maximal inhibition (IC50) on Papain and in the data set on Plasmodium falciparum was above 10 µM each time.
Take `COc1cccc(Nc2c(Nc3cccc(OC)c3)c(=O)c2=O)c1`: the IC50 on Papain is above 5 µM; in data set [2] it was above 50 µM; with Plasmodium falciparum it was above 10 µM.
Regarding `COc1c(Nc2ccc(C(C)(C)C)cc2)c(=O)c1=O`, the IC50 at Papain and with Plasmodium falciparum was above 10 µM throughout.
As for `COc1c(Nc2cccnc2)c(=O)c1=O`, the IC50 on Papain and in the data set on Plasmodium falciparum was above 10 µM each time.
Regarding `CCN(CC)CCCC(C)Nc1c(NC(C)CCCN(CC)CC)c(=O)c1=O` (configuration not stated), the IC50 at Papain and in the data set on Plasmodium falciparum was above 10 µM each time.
In the case of `COc1c(N(Cc2ccccc2)NC(=O)[C@H](CC(C)C)NC(=O)OC(C)(C)C)c(=O)c1=O`, the half-inhibitory concentration (IC50) on Papain was above 10 µM; in the data set on Plasmodium falciparum it was above 1 µM.
Turning to `COc1c(N(CCc2ccccc2)NC(=O)[C@H](CC(C)C)NC(=O)OCc2ccccc2)c(=O)c1=O`, the IC50 in data set [1] was above 100 µM; against Papain, above 10 µM; with Plasmodium falciparum, 2.99 µM; with HEK-293T, above 100 µM. Also, the selectivity ratio in data set [3] was above 33.
As to `COc1c(NNC(=O)[C@H](CC(C)C)NC(=O)OC(C)(C)C)c(=O)c1=O`, the IC50 in data set [1] was above 100 µM; on Papain it was above 10 µM; in the data set with Plasmodium falciparum it was 8.53 µM; with HEK-293T, above 100 µM. Besides, the selectivity ratio in data set [3] is above 12.
Take `COc1c(Nc2ccc(N3CCCCC3)cc2)c(=O)c1=O`: the IC50 against Papain and in the data set on Plasmodium falciparum was above 10 µM throughout.
In the case of `CCCCOc1c(N(CCc2ccccc2)NC(=O)[C@H](CC(C)C)NC(=O)N2CCOCC2)c(=O)c1=O`, the half-inhibitory concentration (IC50) against Papain and in the data set with Plasmodium falciparum was above 10 µM throughout.
Take `CN(C)CCNc1c(NCCN(C)C)c(=O)c1=O`: the IC50 against Papain and in the data set with Plasmodium falciparum was above 10 µM each time.
`CN(C)CC(C)(C)CNc1c(NCC(C)(C)CN(C)C)c(=O)c1=O`: the IC50 on Papain and in the data set on Plasmodium falciparum was above 10 µM in each case.
On to `CCCCOc1c(N(CCc2ccccc2)NC(=O)CNC(=O)OCc2ccccc2)c(=O)c1=O`, for which the IC50 in data set [1] was above 100 µM; on Papain, above 10 µM; in the data set on Plasmodium falciparum, 5.17 µM; in the data set on HEK-293T, above 100 µM. Besides, the selectivity ratio in data set [3] is above 19.
Regarding `CCN(CC)CCCNc1c(NCCCN(CC)CC)c(=O)c1=O`, the half-maximal inhibitory concentration (IC50) at Papain was above 10 µM; in data set [2] it was above 50 µM; in the data set on Plasmodium falciparum it was above 10 µM.
Turning to `COc1c(N(CCc2ccccc2)NC(=O)[C@H](CC(C)C)NC(=O)N2CCOCC2)c(=O)c1=O`, the IC50 against Papain and in the data set with Plasmodium falciparum was above 10 µM each time.
For `CCCCOc1c(Nc2ccc(N3CCCCC3)cc2)c(=O)c1=O`, the half-inhibitory concentration (IC50) in data set [1] is above 100 µM; on Papain, above 10 µM; in the data set with Plasmodium falciparum, 3.13 µM; in the data set with HEK-293T, above 100 µM. Besides, the selectivity ratio in data set [3] is above 32.
